Source: patent publication US20250188062A1, “TRIAZINE COMPOUNDS AND METHODS OF MAKING AND USING THE SAME” (Athos Therapeutics, Inc., priority 2021, published 2025)

Tests used:
[1] = tested on: THP-1 human monocytes; assay: Cellular assay for anti-inflammatory properties: cytokine ELISA multiplex in LPS-stimulated PMA-differentiated THP-1 macrophages; type: cell-based; conditions: 1 μM, 4 hours before 100 ng/mL LPS for 4 or 24 hours; cytokine protein in media vs LPS+PMA only
Description: The anti-inflammatory properties of five JMJD3 inhibitors (99, 92, 93, 98, and 95, in no particularly order) were evaluated in an immune cellular assay targeting key pro-inflammatory cytokines involved in the pathogenesis of multiple autoimmune disease.
Specifically, THP-1 human monocytes were grown in 6-well plates (RPMI 1640+10% FBS+1% P/S). After washing with PBS the THP-1 cells were differentiated into macrophages using 20 nM of phorbol 12-myristate 13-acetate (PMA) for 24 hrs. 99, 92, 93, 98, and 95) (1 μM) were added into the macrophages, which are incubated for 4 hours before the addition of 100 ng/mL lipopolysaccharide (LPS) for either 4 or 24 hours. Next, the macrophages are collected via centrifugation at 1.2K rpm for 5 min and use their media to evaluate cytokine protein levels by using the Bio-rad Cytokine ELISA multiplex assay (cat. No M5000031YV). The supernatants from macrophages treated only with only LPS+PMA were collected and used as negative controls.

[2] = tested on: Naïve CD4+ T human cells; assay: Cellular assay for FoxP3 induction activity (qPCR of FoxP3 mRNA); type: cell-based; conditions: CD4+ T cells activated with anti-CD3, IL-2 and TGF-β for 5 days; FoxP3 mRNA by qPCR on day 5; FIG. 3
Description: CD4+CD25+FOXP3+ regulatory T cells (Tregs) suppress pro-inflammatory cells and signals and are critical mediators of tolerance, inhibiting excessive inflammation and autoimmunity. Also, treatment of CD4+ T cells with interleukin 2 (IL-2) and transforming growth factor beta (TGF-β) signaling are important for FOXP3 induction and Treg formation.
Naïve CD4+ T human cells (cat. no 2W-200, Lonza) were cultured and activated with artificial antigen-presenting cells and soluble anti-CD3 (100 ng/ml) in the presence of IL-2 (300 U/ml) and TGF-β (10 ng/ml) for 5 days. On day 3, cells were transfected with an anti-sense RNA against JMJD3 (cat. No 1299001, Thermo) using Lipofectamine 2000 (cat. No 11668027, Thermo). On day 5, RNA was extracted and qPCR analysis was performed to evaluate FoxP3 mRNA levels by using the following primers: F: 5′-TCCACAACATGCGACCCCCTTTCA-3′ and R: 5′-ACAGCCCCCTTCTCGCTCTCCA-3′ having a 217 bp product. All JMJD3 inhibitors (99, 92, 93, 98, and 95) in CD4+ T cells induced 7-fold FoxP3 expression levels, thus moving towards differentiation and formation of Tregs. […] Thus, genetic or pharmacological inhibition of […] will result into FoxP3 activation and induction of Treg formation. Based on this evidence, JMJD3 inhibitors (99, 92, 93, 98, and 95)) could be used in autoimmune diseases where T-regulatory cells have therapeutic potential. There is increasing evidence and literature derived from human clinical studies (Arellano B et al., Regulatory T Cell-based Therapies for Autoimmunity, Discov Med, 22:73-80, 2016).

[3] = Stability under acidic LCMS condition; type: physicochemical; conditions: 0.1% formic acid mobile phase; hydrolyzed —OH product found
Description: All reactions were carried out under an atmosphere of argon. Reagents and solvents were used from commercial sources without additional purification. Hydrogenation reactions were run under a balloon. Microwave reactions were performed using a CEM Discover SP microwave synthesizer. Sample purification was conducted on a Buchi Pureflash with ELSD purification system using pre-packed commercially available silica gel columns. Thin layer chromatography (TLC) was performed on aluminium plates using Merck Kiesegel 60 F254 (230-400 mesh) fluorescent treated silica which were visualized under ultraviolet light (254 nm), or by staining with potassium permanganate or ninhydrin solution as appropriate. All Nuclear Magnetic Resonance (NMR) spectra were acquired on a Bruker Avance III HD 400 MHz NMR spectrometer; chemical shifts are reported in ppm (δ). […] All compounds purity was analyzed on Agilent 1260 Infinity II Lab LC Series HPLC (1260 Quatpum, 1260 vial autosampler, ICC column oven, 1260 DAD WR detector). […] All compounds that were evaluated in biological assay had >90% and animal study had >95% purity. […]

[4] = target: JMJD3 (Homo sapiens, UniProt O15054); assay: JMJD3 binding assay (Kd, affinity beads, qPCR readout); conditions: 11-point 3-fold dilution series, 0.9% DMSO, room temperature 1 hour; read-out: JMJD3 Affinity (binding constant, Kd)
Chain of JMJD3 (O15054 whole entry, species assumed): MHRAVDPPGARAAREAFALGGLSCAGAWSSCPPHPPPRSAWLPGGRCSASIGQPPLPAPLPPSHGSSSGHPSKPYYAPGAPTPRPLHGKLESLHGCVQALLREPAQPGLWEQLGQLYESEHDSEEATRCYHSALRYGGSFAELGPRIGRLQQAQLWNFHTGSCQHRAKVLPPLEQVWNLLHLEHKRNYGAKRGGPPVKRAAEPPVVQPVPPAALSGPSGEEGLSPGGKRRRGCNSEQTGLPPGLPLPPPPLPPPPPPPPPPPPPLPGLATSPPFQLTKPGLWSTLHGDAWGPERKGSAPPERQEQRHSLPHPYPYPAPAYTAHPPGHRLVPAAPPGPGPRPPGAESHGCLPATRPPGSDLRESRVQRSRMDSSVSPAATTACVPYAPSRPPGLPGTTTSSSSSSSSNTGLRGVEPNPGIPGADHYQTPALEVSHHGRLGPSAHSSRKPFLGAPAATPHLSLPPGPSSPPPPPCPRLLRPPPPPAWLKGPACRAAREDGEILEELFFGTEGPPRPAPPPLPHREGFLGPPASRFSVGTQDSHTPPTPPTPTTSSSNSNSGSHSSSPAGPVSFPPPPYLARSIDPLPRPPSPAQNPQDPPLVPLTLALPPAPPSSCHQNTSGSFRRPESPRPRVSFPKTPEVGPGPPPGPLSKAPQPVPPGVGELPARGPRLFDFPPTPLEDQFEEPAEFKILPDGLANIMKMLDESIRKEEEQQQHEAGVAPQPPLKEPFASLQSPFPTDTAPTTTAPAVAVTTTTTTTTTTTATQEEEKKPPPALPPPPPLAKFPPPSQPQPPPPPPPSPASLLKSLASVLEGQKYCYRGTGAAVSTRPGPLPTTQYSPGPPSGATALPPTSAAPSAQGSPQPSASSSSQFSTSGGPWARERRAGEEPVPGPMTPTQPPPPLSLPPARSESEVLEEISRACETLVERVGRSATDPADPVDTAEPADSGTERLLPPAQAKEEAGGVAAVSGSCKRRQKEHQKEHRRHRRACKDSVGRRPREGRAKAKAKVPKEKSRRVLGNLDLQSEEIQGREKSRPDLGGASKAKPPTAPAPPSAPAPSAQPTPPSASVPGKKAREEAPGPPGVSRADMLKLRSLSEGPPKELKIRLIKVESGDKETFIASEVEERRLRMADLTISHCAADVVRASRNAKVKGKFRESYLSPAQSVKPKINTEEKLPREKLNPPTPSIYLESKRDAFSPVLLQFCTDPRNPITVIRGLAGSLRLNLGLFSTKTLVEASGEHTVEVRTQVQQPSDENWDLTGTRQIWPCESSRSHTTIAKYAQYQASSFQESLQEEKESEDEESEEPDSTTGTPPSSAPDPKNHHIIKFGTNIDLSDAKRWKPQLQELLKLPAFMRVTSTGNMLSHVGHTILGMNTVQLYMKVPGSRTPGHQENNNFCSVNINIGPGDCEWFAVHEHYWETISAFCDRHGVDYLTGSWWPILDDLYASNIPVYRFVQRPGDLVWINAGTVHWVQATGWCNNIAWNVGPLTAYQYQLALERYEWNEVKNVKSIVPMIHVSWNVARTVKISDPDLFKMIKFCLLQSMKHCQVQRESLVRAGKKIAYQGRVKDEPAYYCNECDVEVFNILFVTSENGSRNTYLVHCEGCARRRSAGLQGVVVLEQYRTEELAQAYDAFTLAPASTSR
Description: Test compounds were prepared as 111X stocks in 100% DMSO. Kd values are determined using an 11-point 3-fold compound dilution series with three DMSO control points. All compounds for Kd measurements were distributed by acoustic transfer (non-contact dispensing) in 100% DMSO. The compounds were then diluted directly into the assays such that the final concentration of DMSO was 0.9%. All reactions were performed in polypropylene 384-well plate. Each was a final volume of 0.02 ml. The assay plates were incubated at room temperature with shaking for 1 hour and the affinity beads were washed with wash buffer (lx PBS, 0.05% Tween 20). The beads were then re-suspended in elution buffer (lx PBS, 0.05% Tween 20, 0.5 μM non-biotinylated affinity ligand) and incubated at room temperature with shaking for 30 minutes. The kinase concentration in the eluates was measured by qPCR. Binding constants are calculated with a standard dose-response curve using the Hill equation:
The Hill Slope was set to −1. Curves were fitted using a non-linear least square fit with the Levenberg-Marquardt algorithm. The binding data is summarized in Table 2 where A is less than 100 nM, B is 100 to 500 nM, and C is greater than 500 nM.

For `c1ccc2c(c1)ccn2-c1nc(OC2CCCC2)nc(-n2cccn2)n1` [Compound 95, 1-(4-(Cyclopentyloxy)-6-(1H-pyrazol-1-yl)-1,3,5-triazin-2-yl)-1H-indole], the “suppression of TNF-alpha (TNFA)” value [1] was “suppression”, the “suppression of interleukin 1beta (IL1B)” value [1] was “suppression” and the “suppression of interleukin 5 (IL5)” value [1] was “suppression”. The “suppression of interleukin 6 (IL6)” value [1] was “suppression”, the “suppression of interleukin 8 (IL8)” value [1] was “suppression” and the “suppression of interleukin 13 (IL13)” value [1] was “suppression”. The “FoxP3 expression levels (induction)” value [2] was 7 fold, the “stability under acidic LCMS condition” value [3] was “unstable” and the Kd [4] was under 100 nM.
